This test concerns the target ALK tyrosine kinase receptor (Homo sapiens, UniProt Q9UM73, L1196M). Kind of test: Binding affinity to human recombinant ALK L1196M mutant (1093 to 1411 residues) assessed as inhibition constant using 5'FAM-KKSRGDYMTMQIG-CONH2 peptide as substrate in presence of ATP by micro-fluidic mobility shift assay.

pKi: −log10 of the molar value.

ALK tyrosine kinase receptor, sequence (Q9UM73 19-1620 L1196M limits assumed): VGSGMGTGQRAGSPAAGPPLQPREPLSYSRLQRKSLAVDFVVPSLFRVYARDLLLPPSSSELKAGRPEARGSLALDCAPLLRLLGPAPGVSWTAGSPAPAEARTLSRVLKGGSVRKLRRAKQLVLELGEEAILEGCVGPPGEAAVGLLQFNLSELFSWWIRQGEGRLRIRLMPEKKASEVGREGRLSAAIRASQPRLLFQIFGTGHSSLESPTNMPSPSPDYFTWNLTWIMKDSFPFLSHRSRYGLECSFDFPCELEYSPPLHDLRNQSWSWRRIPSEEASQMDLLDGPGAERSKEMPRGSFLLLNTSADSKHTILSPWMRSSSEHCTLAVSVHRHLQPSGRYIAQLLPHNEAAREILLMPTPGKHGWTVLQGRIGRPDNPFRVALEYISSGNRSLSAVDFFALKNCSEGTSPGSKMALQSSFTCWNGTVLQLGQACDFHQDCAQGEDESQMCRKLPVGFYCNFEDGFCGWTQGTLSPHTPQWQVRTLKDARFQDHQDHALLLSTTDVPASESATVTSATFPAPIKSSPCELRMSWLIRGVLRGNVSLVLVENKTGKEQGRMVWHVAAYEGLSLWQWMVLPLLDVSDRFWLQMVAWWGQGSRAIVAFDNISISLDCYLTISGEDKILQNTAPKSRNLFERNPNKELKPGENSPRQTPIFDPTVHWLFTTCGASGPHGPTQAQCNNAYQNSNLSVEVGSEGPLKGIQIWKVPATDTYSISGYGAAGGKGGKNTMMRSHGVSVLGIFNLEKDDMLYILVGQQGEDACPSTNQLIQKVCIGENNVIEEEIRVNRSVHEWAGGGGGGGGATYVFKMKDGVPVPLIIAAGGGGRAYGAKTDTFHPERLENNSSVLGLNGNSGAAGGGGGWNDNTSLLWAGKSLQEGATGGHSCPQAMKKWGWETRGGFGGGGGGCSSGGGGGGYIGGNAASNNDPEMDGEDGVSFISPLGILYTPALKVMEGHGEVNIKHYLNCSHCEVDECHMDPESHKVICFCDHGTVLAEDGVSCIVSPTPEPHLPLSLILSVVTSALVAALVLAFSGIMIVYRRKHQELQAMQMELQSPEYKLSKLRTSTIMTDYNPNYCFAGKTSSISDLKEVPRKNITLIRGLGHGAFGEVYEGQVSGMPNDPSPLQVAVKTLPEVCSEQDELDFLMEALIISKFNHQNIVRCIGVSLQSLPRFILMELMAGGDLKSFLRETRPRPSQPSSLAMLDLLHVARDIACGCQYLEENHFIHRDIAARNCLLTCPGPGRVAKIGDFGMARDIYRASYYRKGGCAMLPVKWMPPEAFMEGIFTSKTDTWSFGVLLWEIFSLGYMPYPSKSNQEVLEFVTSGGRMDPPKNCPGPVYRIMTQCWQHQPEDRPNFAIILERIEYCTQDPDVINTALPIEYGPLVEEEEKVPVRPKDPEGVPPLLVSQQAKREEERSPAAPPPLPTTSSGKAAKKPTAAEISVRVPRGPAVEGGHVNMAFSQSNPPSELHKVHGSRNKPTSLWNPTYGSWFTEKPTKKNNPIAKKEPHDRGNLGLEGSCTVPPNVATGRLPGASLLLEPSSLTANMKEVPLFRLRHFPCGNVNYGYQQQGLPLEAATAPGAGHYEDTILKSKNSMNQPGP

As to `CN1Cc2nn(C)c(C#N)c2-c2cnc(N)c(c2)OCc2cc(F)ccc2C1=O`, the pKi is 6.56.

The pKi is −log10 of the Ki, conventionally taken in molar units.

The record behind these values is ChEMBL document CHEMBL5244206, “Recent encounters with atropisomerism in drug discovery” (Bioorg Med Chem Lett, 2018).
